Starred links: 1 amine or outer side, 2 acyl side, 3 side chain; linkers in the order of their positions; H or OH if unused. Non-standard residues stand in square brackets, D forms with d. Residues, ends and D or L forms follow the SMILES beside them. No end group written: not given here. *: point of attachment. X1 = C/C=C(/C)C(=O)O[C@H]1C(C)=C2[C@H]([C@@H]1OC(=O)CCCCCCC)[C@@](C)(OC(C)=O)C[C@H](OC(=O)Cc1ccc(O)c(CCCCCN*)c1)[C@@]1(O)[C@H]2OC(=O)[C@@]1(C)O; γGlu = O=C(O)[C@H](CCC(=O)[*:2])N[*:1]; Morpholide = C1CN(*)CCO1; PhADT = not defined here; CO = O=C([*:1])[*:2]
Experiments:
CWR22H tumor = test: Biodistribution in CWR22H tumor bearing mice; assay type: in vivo; details: % Injected Dose/gram tissue, five days after single intravenous dose of 2 μmole (120 mg/kg) of prodrug
Procedure: FIGS. 4A and 4B are (A) selective accumulation of 12ADT-Asp and 12ADT-Asp-Glu in tumor tissue compared to indicated normal tissue five days after single intravenous dose of 2 μmole (120 mg/kg) (FIG. 4A discloses “Asp-Glu*Glu*Glu*Glu” as SEQ ID NO: 57); and (B) biodistribution of TG species (sum of 12ADT-Asp, 12ADT-Asp-Glu and 12ADT-Asp-Glu*Glu*Glu*Glu (SEQ ID NO: 57)) in CWR22H tumor bearing mice. Data presented as % Initial dose (ID)/gram and tumor/tissue ratios (n=4 mice).
In the course of developing a PSMA-activated TG therapy, a prodrug that was readily hydrolyzed by PSMA and selectively toxic to PSMA-producing human prostate cancers in vitro and in vivo was identified. Tissue levels of the TG analog (12ADT-Asp) that is released from the peptide carrier by PSMA were analyzed. See, for example, FIG. 4A.
The characterization of 12ADT-Asp is described in detail below. This TG analog is even more lipophilic than TG due to substitution of the butanoyl side chain of TG with a 12 carbon aminododecanoyl side chain. While it might have been expected to see accumulation of this highly lipophilic 12ADT-Asp in tumor tissue due to PSMA activation, the magnitude of accumulation of the free drug compared to plasma was unexpected. […]

SERCA = SERCA inhibition compared to TG (preliminary / earlier data); assay type: biochemical
[1] = Peptide stability to hydrolysis in human plasma; assay type: in vitro ADME
From the text: (§1) Some preferred peptides include a PSMA-hydrolyzable, a-linked dipeptide “cap” that are not substrates for GGH, and are more specific PSMA substrates. Combination a- and side chain-linked PSMA substrates can be highly efficient and specific. […] A number of aspartate- and glutamate-containing linkers are depicted in FIG. 1. These particular linkers can be bonded to amine groups on therapeutic drugs.

[2] = Peptide stability to hydrolysis in mouse plasma; assay type: in vitro ADME
From the text: as §1

[3] = Peptide stability in serum; assay type: in vitro ADME
From the text: as §1

LNCaP cells [4] = test: Cleavage assay with LNCaP cells, metabolites by LC/MS; assay type: cell-based, human; details: 3 days culture with drug
LNCaP cells [5] = tested on: LNCaP cells
[6] = biological target: sarcoplasmic reticulum (SR) and endoplasmic reticulum (ER) Ca2+-ATPase (SERCA) pump; details: SERCA pump of skeletal, cardiac, muscle and brain microsomes; read-out: apparent dissociation constant; cited from earlier work
SERCA pump = biological target: T1, SERCA pump (Oryctolagus cuniculus, UniProt P04191); test: Microsomal assay of SERCA pump inhibition compared to TG; assay type: biochemical
T1 construct: from tissue; host or cells: microsomes
Procedure: FIG. 6. Microsomal assay comparing inhibition of SERCA pump by compound 14 and TG over a range of concentrations.
All materials were purified by column chromatography with structure confirmed by NMR analysis and mass spectroscopy. The purified phenolic TG analog 14 was then tested in a previously described microsomal assay system to assess inhibition of the SERCA pump compared to TG, FIG. 6.

T1 sequence (P04191 1-994 isoform P04191-2): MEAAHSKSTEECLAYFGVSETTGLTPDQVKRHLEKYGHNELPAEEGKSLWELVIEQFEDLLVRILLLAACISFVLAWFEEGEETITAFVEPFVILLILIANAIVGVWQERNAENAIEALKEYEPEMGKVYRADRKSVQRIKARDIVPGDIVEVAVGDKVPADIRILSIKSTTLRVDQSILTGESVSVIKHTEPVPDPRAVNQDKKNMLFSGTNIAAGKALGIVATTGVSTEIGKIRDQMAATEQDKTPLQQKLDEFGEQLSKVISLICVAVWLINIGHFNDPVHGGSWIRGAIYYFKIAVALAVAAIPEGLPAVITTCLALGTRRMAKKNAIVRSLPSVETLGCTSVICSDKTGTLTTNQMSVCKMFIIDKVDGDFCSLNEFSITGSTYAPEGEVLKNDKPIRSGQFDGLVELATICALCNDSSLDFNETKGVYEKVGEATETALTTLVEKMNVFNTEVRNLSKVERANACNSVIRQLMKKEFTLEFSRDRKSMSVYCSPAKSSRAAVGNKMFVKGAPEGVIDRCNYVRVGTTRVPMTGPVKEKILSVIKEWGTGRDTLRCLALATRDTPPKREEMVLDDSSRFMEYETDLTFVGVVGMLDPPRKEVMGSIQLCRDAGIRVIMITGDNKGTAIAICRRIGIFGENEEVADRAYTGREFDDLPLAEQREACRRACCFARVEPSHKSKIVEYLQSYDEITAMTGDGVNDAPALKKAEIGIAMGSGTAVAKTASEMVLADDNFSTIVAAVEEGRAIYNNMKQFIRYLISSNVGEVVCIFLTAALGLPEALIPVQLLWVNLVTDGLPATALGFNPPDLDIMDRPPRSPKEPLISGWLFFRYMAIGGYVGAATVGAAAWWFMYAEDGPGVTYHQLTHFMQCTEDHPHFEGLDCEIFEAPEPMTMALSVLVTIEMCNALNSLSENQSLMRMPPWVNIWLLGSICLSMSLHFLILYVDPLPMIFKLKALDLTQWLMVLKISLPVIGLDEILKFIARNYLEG

C/C=C(/C)C(=O)O[C@H]1C(C)=C2[C@H]([C@@H]1OC(=O)CCCCCCC)[C@@](C)(OC(C)=O)C[C@H](OC(=O)CCCCCCCCCCCNC(=O)C[C@H](N)C(=O)O)[C@@]1(O)[C@H]2OC(=O)[C@@]1(C)O [12ADT-Asp]
Tumor/Kidney ratio (CWR22H tumor): 15.4 | Tumor/Skeletal muscle ratio (CWR22H tumor): 20.5

C/C=C(/C)C(=O)O[C@H]1C(C)=C2[C@H]([C@@H]1OC(=O)CCCCCCC)[C@@](C)(OC(C)=O)C[C@H](OC(=O)CCCCCCCCCCCN)[C@@]1(O)[C@H]2OC(=O)[C@@]1(C)O [12ADT]
SERCA inhibition compared to TG (SERCA): as efficiently as does TG

N[C@@H](CC(=O)O)C(=O)N[C@@H](CCC(=O)N[C@@H](CCC(=O)N[C@@H](CC(=O)O)C(=O)N[C@@H](CCC(=O)O)C(=O)O)C(=O)O)C(=O)O [Asp-Glu*Glu*Asp-Glu] (H-D[γGlu][γGlu]DE-OH; N-terminus and C-terminus assumed)
stability to hydrolysis in plasma [1]: completely stable to hydrolysis | stability to hydrolysis in plasma [2]: completely stable to hydrolysis

NC(=O)CC[C@H](NC(=O)[C@H](CC(=O)O)NC(=O)CC[C@H](NC(=O)CC[C@H](NC(=O)CC[C@H](N)C(=O)O)C(=O)O)C(=O)O)C(=O)O [Glu*Glu*Glu*Asp-Gln] ({γGlu-γGlu-γGlu}-Asp-Gln-OH; N-terminus and C-terminus assumed)
stability in serum [3]: high stability in serum

N[C@@H](CCC(=O)N[C@@H](CCC(=O)N[C@@H](CCC(=O)N[C@@H](CC(=O)O)C(=O)N[C@@H](CCC(=O)O)C(=O)O)C(=O)O)C(=O)O)C(=O)O [Glu*Glu*Glu*Asp-Glu] ({γGlu-γGlu-γGlu}-Asp-Glu-OH; N-terminus and C-terminus assumed)
stability in serum [3]: high stability in serum

C/C=C(/C)C(=O)O[C@H]1C(C)=C2[C@H]([C@@H]1OC(=O)CCCCCCC)[C@@](C)(OC(C)=O)C[C@H](OC(=O)Cc1ccc(O)c(CCCCCNC(=O)[C@H](CC(C)C)NC(=O)[C@H](CCC(N)=O)NC(=O)[C@H](CC(C)C)NC(=O)[C@H](CCCCN)NC(=O)[C@H](CO)NC(=O)[C@H](CO)NC(=O)[C@H](Cc3c[nH]cn3)NC(=O)N3CCOCC3)c1)[C@@]1(O)[C@H]2OC(=O)[C@@]1(C)O [JHD9784, His-Ser-Ser-Lys-Leu-Gln-Leu-(PhADT)] ({Morpholide-CO}-HSSKLQL-X1)
cleavage of pro-drug by LNCaP cells (LNCaP cells [4]): can cleave | IC50 (LNCaP cells [5]): 2.5 nM

C/C=C(/C)C(=O)O[C@H]1C(C)=C2[C@H]([C@@H]1OC(=O)CCCCCCC)[C@@](C)(OC(C)=O)C[C@H](OC(=O)CCC)[C@@]1(O)[C@H]2OC(=O)[C@@]1(C)O [Thapsigargin]
Kd [6]: ≤ 0.0022 nM

C/C=C(/C)C(=O)OC1C(C)=C2[C@H]([C@@H]1OC(=O)CCCCCCC)[C@@](C)(OC(C)=O)CC(OC(=O)CCc1cc(I)c(O)c(CCCCCNC(=O)OC(C)(C)C)c1)[C@@]1(O)[C@H]2OC(=O)[C@@]1(C)O (stereo partly shown) [compound 14]
ability to inhibit the SERCA pump (SERCA pump): maintained potent ability to inhibit the SERCA pump at nanomolar concentrations | potency of SERCA pump inhibition relative to TG (fold less potent) (SERCA pump; range of concentrations, compared to TG): approximately 4 fold

(PhADT)-Glu-yGlu-yGlu-yGlu (PhADT-E[γGlu][γGlu][γGlu]; reading uncertain) [JHD9783]
cleavage of pro-drug by LNCaP cells (LNCaP cells [4]): can cleave

— patent publication US8772226B2, “Methods and compositions for the detection of cancer” (The Johns Hopkins University, priority 2009, dated 2014)
